Source: patent publication US5585277A, “Screening method for identifying ligands for target proteins” (Scriptgen Pharmaceuticals, Inc., priority 1995, dated 1996)

Tests used:
[1] = test system: Dihydrofolate Reductase (DHFR); experiment: Protection of DHFR from proteolytic digestion by Proteinase K, undigested DHFR quantified by ELISA; assay type: binding; conditions: same methods as Example 1, separate experiments, 54° C., 5 minutes
Description: (§1) Samples were removed and undigested DHFR was quantified by ELISA as follows:
(§2) (a) Protease incubations were diluted 50 fold with Tris-buffered saline (TBS);
(§3) (b) 50 μl diluted samples were transferred to the wells of an ELISA plate and incubated 60 minutes at room temperature;
(§4) (e) plate wells were washed as in (c) above;
(§5) (g) plate wells were washed as in (c); and […]

[2] = test system: Dihydrofolate Reductase (DHFR); experiment: Protection of DHFR from Proteinase K digestion in the presence of a mixture of all 20 common amino acids, ELISA; assay type: binding; conditions: 10^-5M ligand, 10^-5M of all 20 common amino acids, DHFR 2.1 μg/ml, Proteinase K 80 μg/ml, 54° C., 5 minutes
Description: The following were combined and incubated at 54° C. for 5 minutes: DHFR (2.1 μg/ml), Proteinase K (80μg/ml), 0.1M Tris-HCl [pH 7.5], 10^-5M of all 20 common amino acids and either 0 or 10^-5M ligand.
as §1, §2, §3, §4, §5

Compound: NC(=O)C1=CN([C@@H]2O[C@H](COP(=O)(O)OP(=O)(O)OC[C@H]3O[C@@H](n4cnc5c(N)ncnc54)[C@H](OP(=O)(O)O)[C@@H]3O)[C@@H](O)[C@H]2O)C=CC1 [NADPH]
- concentration at which ligand inhibits proteolysis of DHFR [1]: ≥ 10^-5
- protection of DHFR from digestion relative to the absence of ligands [2]: Protects Dihydrofolate Reductase (DHFR) From Proteolytic Digestion
